# Patent publication US10919785B2, “Hydraulic conveyor of floating objects provided with a device for sanitising conveying composition, plant provided with such a conveyor and sanitising method” (MAF AGROBOTIC, priority 2016, dated 2021)
# Read-outs that look alike come from different tables or passages of the source.
# Assays:
# [1] = Example 3: UV/hydrogen peroxide sanitising of 90 m^3 apple conveying water, six photolysis chambers in series; format: physicochemical
# Text: A hydraulic conveyor of a plant for sorting and packaging apples is selected containing a volume of 90 m^3 of water as composition for conveying Ariane, Rosy Glow and Pink Lady apples. A flow rate of conveying composition of 36 m^3/h is established in the external circuit and a flow rate of photoreactive composition of […] is established, the photoreactive composition being an aqueous solution of hydrogen peroxide at an initial concentration of 400 g/l. Under these flow conditions, all of the volume of the conveying composition of the hydraulic conveyor is theoretically treated within 2.5 hours. The composition at the inlet of the sanitising device has an initial hydrogen peroxide proportion in the order of 3 ppm sufficient to allow the decontamination of the composition at the outlet of the sanitising device formed of six photolysis chambers mounted in series, each chamber comprising five fluorescent tubes with an individual power of 200 W.
# The results obtained are shown in Table 2 hereinafter in which the concentration values of boscalid from the apples conveyed with the composition to be sanitised at the inlet of the sanitising device (EC) and at the outlet of sanitising device (SC) are given in μg/l. The column SE/EC represents the ratio multiplied by 100 of the boscalid concentration at the outlet of the sixth chamber of the photolysis tank to the boscalid concentration at the inlet of the photolysis tank (EC). The column C/C0 represents the ratio of the boscalid concentration measured at the inlet of the sanitising device over time to the initial boscalid concentration (t=0).
# [2] = format: physicochemical
# Description: A hydraulic conveyor of a plant for sorting and packaging apples is selected containing a volume of 90 m^3 of a conveying composition containing “BELLIS” at a concentration of 50 m g/l (and boscalid at a concentration of 22 μg/l). A flow rate of the conveying composition of 36 m^3/h is established in the external circuit using the circulation pump 14 and a flow rate of photoreactive composition of 270 cm^3/h is established using the distribution pump 19, the photoreactive composition being an aqueous solution of hydrogen peroxide at an initial concentration of 400 g/l, i.e. 108 g or pure hydrogen peroxide. Under these conveying composition flow conditions, all of the volume of the conveying composition contained in the plant is theoretically treated within 2.5 hours. The composition to be sanitised obtained at the inlet of the sanitising device thus has an initial hydrogen peroxide proportion in the order of 3 ppm and is sufficient to allow the decontamination of the composition to be sanitised at the outlet of the sanitising device formed of 6 photolysis chambers mounted in series, each chamber comprising five fluorescent tubes with an individual power of 200 W.
# The results obtained are shown in Table 1 hereinafter in which the concentration values of boscalid in the composition to be sanitised at the inlet of the photolysis tank (EC), at the outlet of the third chamber (S3E) of the photolysis tank and at the outlet of the sixth chamber (S6E) of the photolysis tank are given in μg/l. The column S6E/EC represents the ratio multiplied by 100 of the boscalid concentration at the outlet of the sixth chamber (S6E) of the photolysis tank to the boscalid concentration at the inlet of the photolysis tank (EC). The column C/C0 represents the ratio of the boscalid concentration measured at the inlet of the photolysis tank over time to the initial boscalid concentration (t=0).
structure (smiles),measurement,setting,value
O=C(Nc1ccccc1-c1ccc(Cl)cc1)c1cccnc1Cl [boscalid],boscalid concentration at the inlet of the sanitising device (EC),[1]; time 0 hours,2.83 µg/L
same,percent boscalid removed between inlet and outlet of the sanitising device (100 x (1 - SC/EC)),[1]; time 0 hours,100%
same,boscalid concentration at the inlet of the sanitising device (EC),[1]; time 4 hours,4.76 µg/L
same,boscalid concentration at the outlet of the sanitising device (SC),[1]; time 4 hours,0.065 µg/L
same,percent boscalid removed between inlet and outlet of the sanitising device (100 x (1 - SC/EC)),[1]; time 4 hours,98.6%
same,boscalid concentration at the inlet of the sanitising device (EC),[1]; time 7 hours,2.84 µg/L
same,boscalid concentration at the outlet of the sanitising device (SC),[1]; time 7 hours,0.206 µg/L
same,percent boscalid removed between inlet and outlet of the sanitising device (100 x (1 - SC/EC)),[1]; time 7 hours,92.8%
same,C/C0 (inlet boscalid concentration over initial concentration),[1]; time 7.1 hours,1
same,boscalid concentration at the inlet of the sanitising device (EC),[1]; time 7.1 hours,4.19 µg/L
same,percent boscalid removed between inlet and outlet of the sanitising device (100 x (1 - SC/EC)),[1]; time 7.1 hours,100%
same,C/C0 (inlet boscalid concentration over initial concentration),[1]; time 10.5 hours,0.41
same,boscalid concentration at the inlet of the sanitising device (EC),[1]; time 10.5 hours,1.73 µg/L
same,boscalid concentration at the outlet of the sanitising device (SC),[1]; time 10.5 hours,0.062 µg/L
same,percent boscalid removed between inlet and outlet of the sanitising device (100 x (1 - SC/EC)),[1]; time 10.5 hours,96.4%
same,C/C0 (inlet boscalid concentration over initial concentration),[1]; time 12.5 hours,0.32
same,boscalid concentration at the inlet of the sanitising device (EC),[1]; time 12.5 hours,1.35 µg/L
same,percent boscalid removed between inlet and outlet of the sanitising device (100 x (1 - SC/EC)),[1]; time 12.5 hours,100%
same,C/C0 (inlet boscalid concentration over initial concentration),[1]; time 14.75 hours,0.41
same,boscalid concentration at the inlet of the sanitising device (EC),[1]; time 14.75 hours,1.71 µg/L
same,boscalid concentration at the outlet of the sanitising device (SC),[1]; time 14.75 hours,0.058 µg/L
same,percent boscalid removed between inlet and outlet of the sanitising device (100 x (1 - SC/EC)),[1]; time 14.75 hours,96.6%
same,C/C0 (inlet boscalid concentration over initial concentration),[1]; time 17.25 hours,0.28
same,boscalid concentration at the inlet of the sanitising device (EC),[1]; time 17.25 hours,1.18 µg/L
same,boscalid concentration at the outlet of the sanitising device (SC),[1]; time 17.25 hours,0.040 µg/L
same,percent boscalid removed between inlet and outlet of the sanitising device (100 x (1 - SC/EC)),[1]; time 17.25 hours,96.6%
same,C/C0 (inlet boscalid concentration over initial concentration),[1]; time 19.25 hours,0.45
same,boscalid concentration at the inlet of the sanitising device (EC),[1]; time 19.25 hours,1.88 µg/L
same,percent boscalid removed between inlet and outlet of the sanitising device (100 x (1 - SC/EC)),[1]; time 19.25 hours,100%
same,C/C0 (inlet boscalid concentration over initial concentration),[1]; time 22.75 hours,0.25
same,boscalid concentration at the inlet of the sanitising device (EC),[1]; time 22.75 hours,1.07 µg/L
same,boscalid concentration at the outlet of the sanitising device (SC),[1]; time 22.75 hours,0.064 µg/L
same,percent boscalid removed between inlet and outlet of the sanitising device (100 x (1 - SC/EC)),[1]; time 22.75 hours,94%
same,C/C0 (inlet boscalid concentration over initial concentration),[1]; time 24.75 hours,0.15
same,boscalid concentration at the inlet of the sanitising device (EC),[1]; time 24.75 hours,0.64 µg/L
same,boscalid concentration at the outlet of the sanitising device (SC),[1]; time 24.75 hours,0.057 µg/L
same,percent boscalid removed between inlet and outlet of the sanitising device (100 x (1 - SC/EC)),[1]; time 24.75 hours,91.2%
same,C/C0 (inlet boscalid concentration over initial concentration),[1]; time 28.75 hours,0.16
same,boscalid concentration at the inlet of the sanitising device (EC),[1]; time 28.75 hours,0.66 µg/L
same,boscalid concentration at the outlet of the sanitising device (SC),[1]; time 28.75 hours,0.039 µg/L
same,percent boscalid removed between inlet and outlet of the sanitising device (100 x (1 - SC/EC)),[1]; time 28.75 hours,94%
same,C/C0 (inlet boscalid concentration over initial concentration),[1]; time 29.75 hours,0.22
same,boscalid concentration at the inlet of the sanitising device (EC),[1]; time 29.75 hours,0.93 µg/L
same,percent boscalid removed between inlet and outlet of the sanitising device (100 x (1 - SC/EC)),[1]; time 29.75 hours,100%
same,C/C0 (inlet boscalid concentration over initial concentration),[1]; time 32.25 hours,0.19
same,boscalid concentration at the inlet of the sanitising device (EC),[1]; time 32.25 hours,0.79 µg/L
same,boscalid concentration at the outlet of the sanitising device (SC),[1]; time 32.25 hours,0.040 µg/L
same,percent boscalid removed between inlet and outlet of the sanitising device (100 x (1 - SC/EC)),[1]; time 32.25 hours,95%
same,C/C0 (inlet boscalid concentration over initial concentration),[1]; time 34.75 hours,0.17
same,boscalid concentration at the inlet of the sanitising device (EC),[1]; time 34.75 hours,0.73 µg/L
same,boscalid concentration at the outlet of the sanitising device (SC),[1]; time 34.75 hours,0.043 µg/L
same,percent boscalid removed between inlet and outlet of the sanitising device (100 x (1 - SC/EC)),[1]; time 34.75 hours,94.1%
same,rate of degradation between the inlet and outlet of the photolysis tank,[2]; 22 μg/l,greater than 90%
same,boscalid concentration at the inlet of the photolysis tank (EC),[2]; time 0 hours,21.43 µg/L
same,C/C0 (inlet boscalid concentration over initial concentration),[2]; time 1.25 hours,0.79
same,S6E/EC,[2]; time 1.25 hours,92%
same,boscalid concentration at the inlet of the photolysis tank (EC),[2]; time 1.25 hours,16.64 µg/L
same,boscalid concentration at the outlet of the sixth chamber (S6E),[2]; time 1.25 hours,1.28 µg/L
same,C/C0 (inlet boscalid concentration over initial concentration),[2]; time 2.5 hours,0.73
same,S6E/EC,[2]; time 2.5 hours,94%
same,boscalid concentration at the inlet of the photolysis tank (EC),[2]; time 2.5 hours,15.68 µg/L
same,boscalid concentration at the outlet of the sixth chamber (S6E),[2]; time 2.5 hours,0.99 µg/L
same,boscalid concentration at the outlet of the third chamber (S3E),[2]; time 2.5 hours,3.96 µg/L
same,C/C0 (inlet boscalid concentration over initial concentration),[2]; time 3.75 hours,0.73
same,S6E/EC,[2]; time 3.75 hours,94%
same,boscalid concentration at the inlet of the photolysis tank (EC),[2]; time 3.75 hours,15.56 µg/L
same,boscalid concentration at the outlet of the sixth chamber (S6E),[2]; time 3.75 hours,0.91 µg/L
same,boscalid concentration at the outlet of the third chamber (S3E),[2]; time 3.75 hours,3.38 µg/L
same,C/C0 (inlet boscalid concentration over initial concentration),[2]; time 5 hours,0.66
same,S6E/EC,[2]; time 5 hours,94%
same,boscalid concentration at the inlet of the photolysis tank (EC),[2]; time 5 hours,14.06 µg/L
same,boscalid concentration at the outlet of the sixth chamber (S6E),[2]; time 5 hours,0.56 µg/L
same,boscalid concentration at the outlet of the third chamber (S3E),[2]; time 5 hours,2.71 µg/L
same,C/C0 (inlet boscalid concentration over initial concentration),[2]; time 7.5 hours,0.38
same,boscalid concentration at the inlet of the photolysis tank (EC),[2]; time 7.5 hours,8.25 µg/L
same,boscalid concentration at the outlet of the third chamber (S3E),[2]; time 7.5 hours,1.78 µg/L
same,elimination from the conveying composition of the hydraulic conveyor,[2]; within 7.5 hours,62%
